{"source": "patent US12453782B2", "about": "“Antibody-oligonucleotide conjugate” (priority 2018, dated 2025)", "key": {"[1]": {"test_system": "HER14 cells (fibroblasts stably transfected with the human epidermal growth factor receptor)", "test": "Viability assay (MTT) with HER14 cells, dianthin-EGF, SA1641 and polymeric structure (Example 11)", "type": "cell-based", "conditions": "72 h", "description": "To test the efficacy of the invention, we conducted a viability assay with HER14 cells. These cells are fibroblasts stably transfected with the human epidermal growth factor receptor and therefore target cells for the targeted toxin dianthin-EGF. HER14 cells (2,000 cells/100 μL/well) were seeded into wells of 96-well-cell culture plates and incubated for 24 h in DMEM medium supplemented with 10% fetal calf serum and 1% penicillin/streptomycin at 37° C., 5% CO2 and 98% humidity. The different test substances (see results and FIG. 21) were then added in triplicates in a volume of 25 μL and supplemented with further 25 μL of medium. After an incubation of 72 h, 30 μL 3-(4,5-dimethylthiazol-2-yl)-2,5-diphenyltetrazolium bromide (0.5 mg/mL in water) was added per well and incubated for 2 h. Thereafter, the medium was carefully removed and replaced by an aqueous solution containing 10% (v/v) isopropanol, 5% (w/v) sodium dodecyl sulfate and 400 mM HCl, and incubated for 5 min. Solubilized formazan was photometrically quantitated at […] in a microplate reader (Spectra MAX 340 PC, Molecular Devices, Sunnyvale, CA, USA). Untreated cells were normalized to 1 and all samples referred to the untreated control. Significance was determined by unpaired two-sample t-tests."}, "[2]": {"test": "pH dependent hydrolysis of the hydrazone bond of SO1861-EMCH (MALDI-TOF-MS)", "type": "physicochemical", "conditions": "HCl solution at pH 3, two points in time"}, "[3]": {"conditions": "newly diagnosed glioblastoma (ABT-414); platinum-resistant ovarian cancer (IMGN853); cited from earlier work"}, "[4]": {"test_system": "SK-BR-3, JIMT-1, MDA-MB-468, A431, CaSki, HeLa, A2058", "test": "Control treatments, relative cell viability on various cancer cell lines (Example 4, FIG. 8)", "type": "cell-based, human", "conditions": "wide range of toxin concentrations, up to 100.000 pM", "experimental": "After treatment the cells were incubated for 72 hr at 37° C. before the cell viability was determined by a MTS-assay, performed according to the manufacturer's instruction (CellTiter 96® AQueous One Solution Cell Proliferation Assay, Promega). Briefly, the MTS solution was diluted 20× in DMEM without phenol red (PAN-Biotech GmbH) supplemented with 10% FBS (PAN-Biotech GmbH). The cells were washed once with 200 μL PBS per well, after which 100 μL diluted MTS solution was added per well. The plate was incubated for approximately 20-30 minutes at 37° C. Subsequently, the optical density at 492 nm was measured on a Thermo Scientific Multiskan FC plate reader (Thermo Scientific). For quantification the background signal of ‘medium only’ wells was subtracted from all other wells, before the ratio of untreated/treated cells was calculated, by dividing the background corrected signal of untreated wells over the background corrected signal of the treated wells."}, "HeLa cells": {"test_system": "HeLa cells", "test": "Co-administration of PAMAM, dendron or chloroquine with dianthin-EGF and SO1861 on HeLa cells (inhibition of endosomal escape, cell viability)", "type": "cell-based, human", "conditions": "500 nM PAMAM, PAMAM derivatives or chloroquine, 667 nM dendron, various SO1861 concentrations", "from_the_text": "As control for the inhibition of endosomal acidification chloroquine was used."}}}
{"compound": "C[C@@H]1O[C@@H](O[C@H]2[C@H](OC(=O)[C@]34CCC(C)(C)C[C@H]3C3=CC[C@@H]5[C@@]6(C)CC[C@H](O[C@H]7O[C@H](C(=O)O)[C@@H](O)[C@H](O[C@@H]8OC[C@@H](O)[C@H](O)[C@H]8O)[C@H]7O[C@@H]7O[C@H](CO)[C@H](O)[C@H](O)[C@H]7O)[C@@](C)(C=O)[C@@H]6CC[C@@]5(C)[C@]3(C)CC4)O[C@H](C)[C@H](O[C@@H]3O[C@H](C)[C@@H](O)[C@H](O)[C@H]3O)[C@@H]2O)[C@H](O)[C@H](O)[C@H]1O[C@@H]1OC[C@@H](O)[C@H](O[C@@H]2OC[C@@H](O)[C@H](O)[C@H]2O)[C@H]1O", "note": "[SA1641]", "values": [{"measurement": "effect on cells of 0.1 nM dianthin-EGF in the presence of SA1641", "setting": "[1]", "result": "death of all cells"}]}
{"compound": "CC(=O)OC1C(C)OC(OC2C(C)OC(OC(=O)[C@]34CCC(C)(C)CC3C3=CCC5[C@@]6(C)CC[C@H](OC7OC(C(=O)O)C(O)C(OC8OCC(O)C(O)C8O)C7OC7OC(CO)C(O)C(O)C7O)[C@@](C)(/C=N/NC(=O)CCCCCN7C(=O)C=CC7=O)C6CC[C@@]5(C)[C@]3(C)C[C@H]4O)C(OC3OC(C)C(OC4OCC(O)C(OC5OC(CO)C(O)C(O)C5O)C4O)C(O)C3O)C2O)C(O)C1OC1OCC(O)C(O)C1O", "note": "(stereo partly drawn) [SO1861-EMCH]", "values": [{"measurement": "hydrolysis of the hydrazone bond", "setting": "[2]", "result": "responsive towards hydrolysis and gets cleaved"}]}
{"compound": "depatuxizumab mafodotin: EGFR targeted ADC, AbbVie", "values": [{"measurement": "survival benefit in phase 3 trials", "setting": "[3]", "result": "no survival benefit"}]}
{"compound": "saporin", "values": [{"measurement": "influence on cell viability", "setting": "[4]", "result": "do not or hardly have any influence on cell viability"}]}
{"compound": "mirvetuximab soravtansine: folate receptor alpha targeted ADC, ImmunoGen", "values": [{"measurement": "survival benefit in phase 3 trials", "setting": "[3]", "result": "no survival benefit"}]}
{"compound": "CCN(CC)CCCC(C)Nc1ccnc2cc(Cl)ccc12", "note": "(stereo not drawn) [chloroquine]", "values": [{"measurement": "effect on SO1861-mediated endosomal escape of the targeted toxin (dianthin-EGF) and cell killing", "setting": "HeLa cells", "result": "inhibit the SO1861-mediated endosomal escape of the targeted toxin and subsequent cell killing"}]}
